Data as given in patent US7935670B2, “Hepatitis C virus inhibitors” (Bristol-Myers Squibb Company, priority 2006, dated 2011).

Legend:
[1] = test system: human pancreatic chymotrypsin; test: Specificity assay, chymotrypsin; assay type: biochemical; details: 2 h enzyme-inhibitor pre-incubation
Method: (§1) The specificities of compounds of the present disclosure were determined against a variety of serine proteases: human neutrophil elastase (HNE), porcine pancreatic elastase (PPE) and human pancreatic chymotrypsin and one cysteine protease: human liver cathepsin B. In all cases a 96-well plate format protocol using colorimetric p-nitroaniline (pNA) substrate specific for each enzyme was used as described previously (PCT Patent Application No. WO 00/09543) with some modifications to the serine protease assays. All enzymes were purchased from Sigma while the substrates were from Bachem.
(§2) Each assay included a 2 h enzyme-inhibitor pre-incubation at room temperature followed by addition of substrate and hydrolysis to ˜30% conversion as measured on a Spectramax Pro microplate reader. Compound concentrations varied from 100 to 0.4 μM depending on their potency.
(§3) 50 mM Tris(hydroxymethyl)aminomethane hydrochloride (Tris-HCl) pH 8, 0.5 M Sodium Sulfate (Na2SO4), 50 mM NaCl, 0.1 mM EDTA, 3% DMSO, 0.01% Tween-20 with:
(§4) 133 μM succ-AAA-pNA and 20 nM HNE or 8 nM PPE; 100 μM succ-AAPF-pNA and […] Chymotrypsin.
(§5) The percentage of inhibition was calculated using the formula: [1−((UVinh−UVblank)/(UVctl−UVblank))]×100
(§6) A non-linear curve fit was applied to the inhibition-concentration data, and the 50% effective concentration (IC50) was calculated by the use of Excel Xl-fit software.

[2] = biological target: T1, HCV NS3/4A protease complex, H77 strain (Hepatitis C virus genotype 1a, UniProt P27958, C1454S/C1711G); test: FRET peptide assay to monitor HCV NS3/4A proteolytic activity (H77 strain); assay type: biochemical, HCV genotype 1a
T1 construct: DNA encoding the recombinant HCV NS3/4A protease complex (amino acids 1027 to 1711) for these strains; His tag (inferred from pET21b vector and Ni-NTA purification); made in house; host or cells: Escherichia coli BL21 (DE3), pET21b
T1 sequence (P27958 1027-1711 C1454S/C1711G, one chain of several): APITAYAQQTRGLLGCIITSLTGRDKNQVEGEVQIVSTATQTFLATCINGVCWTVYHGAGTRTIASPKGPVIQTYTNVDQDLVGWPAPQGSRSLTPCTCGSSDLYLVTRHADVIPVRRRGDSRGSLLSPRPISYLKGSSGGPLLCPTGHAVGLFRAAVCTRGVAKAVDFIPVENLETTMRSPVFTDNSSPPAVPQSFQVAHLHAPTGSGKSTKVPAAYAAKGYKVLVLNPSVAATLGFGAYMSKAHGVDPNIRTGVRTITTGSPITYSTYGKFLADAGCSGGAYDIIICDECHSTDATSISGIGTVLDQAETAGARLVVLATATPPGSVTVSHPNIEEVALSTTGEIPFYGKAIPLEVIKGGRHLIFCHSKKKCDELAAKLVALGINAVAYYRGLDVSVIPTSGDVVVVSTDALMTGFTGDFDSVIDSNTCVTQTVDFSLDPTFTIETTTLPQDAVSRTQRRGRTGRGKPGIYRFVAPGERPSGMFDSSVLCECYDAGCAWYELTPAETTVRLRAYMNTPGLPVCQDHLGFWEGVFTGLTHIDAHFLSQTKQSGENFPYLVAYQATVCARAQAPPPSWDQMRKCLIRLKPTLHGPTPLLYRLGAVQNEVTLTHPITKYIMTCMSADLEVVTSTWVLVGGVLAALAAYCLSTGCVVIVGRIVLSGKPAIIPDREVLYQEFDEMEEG
Source text: HCV NS3 protease complexes, derived from the BMS strain, H77 strain or J4L6S strain, were generated, as described below. These purified recombinant proteins were generated for use in a homogeneous assay (see below) to provide an indication of how effective compounds of the present disclosure would be in inhibiting HCV NS3 proteolytic activity.
Serum from an HCV-infected patient was obtained from Dr. T. Wright, San Francisco Hospital. An engineered full-length cDNA (compliment deoxyribonucleic acid) template of the HCV genome (BMS strain) was constructed from DNA fragments obtained by reverse transcription-PCR(RT-PCR) of serum RNA (ribonucleic acid) and using primers selected on the basis of homology between other genotype 1a strains. From the determination of the entire genome sequence, a genotype 1a was assigned to the HCV isolate according to the classification of Simmonds et al. (See P Simmonds, K A Rose, S Graham, S W Chan, F McOmish, B C Dow, E A Follett, P L Yap and H Marsden, J. Clin. Microbiol., 31(6), 1493-1503 (1993)). […]

[3] = biological target: T2, human neutrophil elastase (HNE) (Homo sapiens, UniProt P08246); test: Specificity assay, human neutrophil elastase; assay type: biochemical; details: 2 h enzyme-inhibitor pre-incubation; read-out: HLE activity (IC50) in the specificity assay
T2 construct: purchased Sigma
T2 sequence (P08246 30-267): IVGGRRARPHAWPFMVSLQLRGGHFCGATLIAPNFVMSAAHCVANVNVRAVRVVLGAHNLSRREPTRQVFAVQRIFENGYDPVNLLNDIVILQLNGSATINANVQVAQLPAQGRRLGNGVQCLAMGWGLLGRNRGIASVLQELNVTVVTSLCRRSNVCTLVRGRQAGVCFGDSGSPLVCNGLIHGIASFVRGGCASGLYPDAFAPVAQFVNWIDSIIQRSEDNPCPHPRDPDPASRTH
Method: as §1, §2, §3, §4, §5, §6

C=C[C@@H]1C[C@]1(NC(=O)[C@@H]1C[C@@H](OC(=O)c2ccccc2)CN1C(=O)[C@@H](NC(=O)OC(C)(C)C)C(C)(C)C)C(=O)NS(=O)(=O)C1CC1 [Compound 1]
IC50 [1]: > 200 µM | IC50 [2]: 0.006 µM | IC50 [3]: > 200 µM
